Experimental data published in patent US12264156B2, “Compounds and pharmaceutical compositions thereof for the treatment of diseases” (GALAPAGOS NV, priority 2018, dated 2025).

Tests used:
SIK2 = molecular target: T1, SIK2 (Homo sapiens, UniProt Q9H0K1); test: ADP-Glo kinase assay, SIK2; format: biochemical; conditions: ADP-Glo SIK kinase assay
T1 construct: purchased ThermoFisher Scientific PV4792
How it was run: (§1)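 ADP-Glo luminescent assay of ADP formed by SIK2 or SIK3 with substrate after ATP addition, 120 min at RT. Remaining ATP depleted 40 min, then ADP converted to ATP and read by luciferase luminescence after 30 min. Controls: 1% DMSO and 10 μM staurosporine (final).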

[1] = tested on: LPS triggered IL-10 secretion in monocytes; test: Monocytes assay: LPS-triggered IL-10 (ELISA); format: cell-based, human; conditions: LPS 200 ng/mL, supernatant after 4 h, maximal fold change vs LPS only
Protocol: (§2) SIK inhibition inhibits TNFα and increases IL-10 release in LPS triggered monocyte-derived macrophages (MdM) and dendritic cells (MdDCs) (Clark et al. 2012; Sundberg et al. 2014; Ozanne et al. 2015). This assay evaluates illustrative compounds of the invention for their inhibition of LPS-induced TNFα and LPS triggered IL-10 secretion in monocytes.
(§3) PBMCs are isolated from human blood samples (buffycoats). The buffy coat is aseptically transferred into a 50 mL Falcon tube, and diluted 1/2 in PBS. Falcon tubes are filled with 20 mL Lymphoprep™, on top of which 25 mL of the buffy coat is carefully added, tubes are centrifuged for 35 min at 400 g in temperature controlled centrifuge, without brake, at 25° C. PBMCs are aspirated from the white interface layer between sample and Lymphoprep™. PBMCs are washed five times in PBS. Cells are resuspended in RPMI 1640 complete medium supplemented with 10% FBS, 1% P/S, and cell density is determined using a hematologic analyzer (Sysmex XS-500i).
(§4) PBMCs are centrifuged at 300×g for 10 min and resuspended at a density of 1.0*10^7 cells/80 μL Miltenyi buffer (PBS, pH 7.4, 1% FBS, 2 mM EDTA).
(§5) Starting from this point of the protocol all steps are performed on ice. 20 μL of CD14+ micro-beads are added per 1.0*10^7 cells, the tube is mixed and incubated for 15 min in the fridge at 4° C. Cell suspension volume is adjusted to total volume of 100 mL using Miltenyi buffer, mixed gently and subsequently centrifuged for 10 min at 300×g. Supernantant is discarded and cell pellet is resuspended in 12 mL of Miltenyi buffer.
(§6) Four LS columns are placed in the MACS Separator (magnet) from Miltenyi Biotec, and are prewet by rinsing with 3 mL of MACS buffer per column. Three mL of cell suspension is added onto the column (max 1*10^8 of labelled cells/column), and columns are subsequently washed 3 times with 3 mL of Miltenyi buffer.
(§7) The columns are removed from the magnets, and 5 mL of Miltenyi buffer are added to the column to flush out the CD14+ fraction by pushing the plunger into the column. The flushed fractions are collected in a fresh 50 mL Falcon and volume is adjusted to 30 mL using Miltenyi buffer, cells are centrifuged for 10 min at 300×g. The obtained cell pellet is resuspended in 10 mL RPMI w/o FBS, and cell density is determined using a hematologic analyser (Sysmex XS-500i). 100 000 cells are seeded in 80 μL per well of a 96-well plate in RPMI 1640 medium supplemented with 10% FBS, 1% P/S.
(§8) A compound dilution plate is made in 100% DMSO by 3-fold dilution of 10 mM stock solution. An intermediate dilution plate (10× final concentration) is made by diluting the compound dilution plate 50-fold in RPMI medium.
(§9) 10 μL of the 10× final concentration compound is added to the cells and incubated for 1 h at 37° C. before addition of trigger. No trigger conditions/trigger conditions are spiked with equal final DMSO concentrations of 0.2% DMSO. 10 μL of 10×LPS (final conc. 200 ng/mL) solution are added to all wells except for the ‘no trigger wells’ where 10 μL medium is added. Supernatant is collected after 4 h of LPS triggering.
A Lumitrac 600 Greiner 384-well plate is coated with 40 μL of capture antibody (final concentration of 1 μg/mL in 1×PBS) and stored overnight at 4° C. The next day the plate is washed three times with PBST (PBS+0.05% Tween20) and once with PBS followed by the addition of 100 μL of blocking buffer (1% BSA−5% Sucrose) and plates are sealed and incubated for at least 4 h at RT. After washing the plate once with PBST and once with PBS, 40 μL of standard or sample are added (IL-10 standard curve is prepared using a 1/2 serial dilution starting from […]; dilutions are made in dilution buffer (PBS+1% BSA)). Plates are washed twice with PBST, and once with PBS, after which 35 μL of the detection antibody is added (final concentration 0.143 μg/mL diluted in dilution buffer) and plates are incubated for at least 2 h at RT. […]

[2] = tested on: LPS-induced TNFα in monocytes; test: Monocytes assay: LPS-triggered TNFα (ELISA); format: cell-based, human; conditions: Homo sapiens, Monocyte, 4 h, LPS 200 ng/mL, supernatant after 4 h
Protocol: as §2, §3, §4, §5, §6, §7, §8, §9
A Lumitrac 600 Greiner 384-well plate is coated with 40 μL of capture antibody (BD Pharmingen, Cat #551220) reaching a final concentration of 1 μg/mL in 1×PBS and stored overnight at 4° C.
The plate is then washed once with PBST (PBS+0.05% Tween20) and once with PBS followed by the addition of 100 μL of blocking buffer (1% Bovine Serum Albumin (BSA)−5% Sucrose) and plates are sealed and incubated for at least 4 h at RT. After washing the plate once with PBST and once with PBS, […]. Plates are washed twice with PBST, and once with PBS, after which 35 μL of the detection antibody is added (final concentration 0.25 μg/mL diluted in dilution buffer) and plates are incubated for at least 2 h at RT. […]

SIK1 = molecular target: T2, SIK1 (Homo sapiens, UniProt P57059); test: ADP-Glo kinase assay, SIK1; format: biochemical; conditions: ADP-Glo SIK kinase assay
T2 construct: purchased Carna Biosciences 02-131
T2 sequence (P57059 whole entry): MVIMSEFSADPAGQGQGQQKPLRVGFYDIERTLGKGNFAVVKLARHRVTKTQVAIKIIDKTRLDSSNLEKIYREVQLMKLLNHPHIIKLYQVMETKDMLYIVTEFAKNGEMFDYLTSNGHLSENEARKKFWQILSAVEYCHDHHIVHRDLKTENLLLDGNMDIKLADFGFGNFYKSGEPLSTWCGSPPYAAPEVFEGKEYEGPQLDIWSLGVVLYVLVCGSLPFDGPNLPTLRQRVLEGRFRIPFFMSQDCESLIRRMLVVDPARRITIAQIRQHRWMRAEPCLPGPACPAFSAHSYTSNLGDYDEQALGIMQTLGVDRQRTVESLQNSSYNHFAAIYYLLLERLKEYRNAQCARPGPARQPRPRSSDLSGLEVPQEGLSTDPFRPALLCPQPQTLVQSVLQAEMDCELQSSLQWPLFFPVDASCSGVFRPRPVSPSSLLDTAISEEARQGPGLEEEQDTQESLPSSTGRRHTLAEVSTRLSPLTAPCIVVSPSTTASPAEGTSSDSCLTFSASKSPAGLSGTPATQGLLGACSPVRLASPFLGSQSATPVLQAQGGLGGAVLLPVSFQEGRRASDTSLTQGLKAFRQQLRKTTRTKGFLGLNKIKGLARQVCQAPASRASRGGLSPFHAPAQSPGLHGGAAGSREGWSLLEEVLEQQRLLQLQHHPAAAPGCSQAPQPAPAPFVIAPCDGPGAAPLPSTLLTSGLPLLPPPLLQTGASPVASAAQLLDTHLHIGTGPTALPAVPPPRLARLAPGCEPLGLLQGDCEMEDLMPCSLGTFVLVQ
How it was run: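 Wells with 1% DMSO or 10 μM staurosporine (final) define the control window. The kinase reaction with substrate and ATP runs 120 min at RT, followed by ADP-Glo detection: ATP depletion (40 min) and ADP-derived luminescence (30 min).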

SIK3 = molecular target: T3, SIK3 (Homo sapiens, UniProt Q9Y2K2); test: ADP-Glo kinase assay, SIK3; format: biochemical; conditions: ADP-Glo SIK kinase assay
T3 construct: purchased SignalChem S12-11G-100
T3 sequence (Q9Y2K2 whole entry): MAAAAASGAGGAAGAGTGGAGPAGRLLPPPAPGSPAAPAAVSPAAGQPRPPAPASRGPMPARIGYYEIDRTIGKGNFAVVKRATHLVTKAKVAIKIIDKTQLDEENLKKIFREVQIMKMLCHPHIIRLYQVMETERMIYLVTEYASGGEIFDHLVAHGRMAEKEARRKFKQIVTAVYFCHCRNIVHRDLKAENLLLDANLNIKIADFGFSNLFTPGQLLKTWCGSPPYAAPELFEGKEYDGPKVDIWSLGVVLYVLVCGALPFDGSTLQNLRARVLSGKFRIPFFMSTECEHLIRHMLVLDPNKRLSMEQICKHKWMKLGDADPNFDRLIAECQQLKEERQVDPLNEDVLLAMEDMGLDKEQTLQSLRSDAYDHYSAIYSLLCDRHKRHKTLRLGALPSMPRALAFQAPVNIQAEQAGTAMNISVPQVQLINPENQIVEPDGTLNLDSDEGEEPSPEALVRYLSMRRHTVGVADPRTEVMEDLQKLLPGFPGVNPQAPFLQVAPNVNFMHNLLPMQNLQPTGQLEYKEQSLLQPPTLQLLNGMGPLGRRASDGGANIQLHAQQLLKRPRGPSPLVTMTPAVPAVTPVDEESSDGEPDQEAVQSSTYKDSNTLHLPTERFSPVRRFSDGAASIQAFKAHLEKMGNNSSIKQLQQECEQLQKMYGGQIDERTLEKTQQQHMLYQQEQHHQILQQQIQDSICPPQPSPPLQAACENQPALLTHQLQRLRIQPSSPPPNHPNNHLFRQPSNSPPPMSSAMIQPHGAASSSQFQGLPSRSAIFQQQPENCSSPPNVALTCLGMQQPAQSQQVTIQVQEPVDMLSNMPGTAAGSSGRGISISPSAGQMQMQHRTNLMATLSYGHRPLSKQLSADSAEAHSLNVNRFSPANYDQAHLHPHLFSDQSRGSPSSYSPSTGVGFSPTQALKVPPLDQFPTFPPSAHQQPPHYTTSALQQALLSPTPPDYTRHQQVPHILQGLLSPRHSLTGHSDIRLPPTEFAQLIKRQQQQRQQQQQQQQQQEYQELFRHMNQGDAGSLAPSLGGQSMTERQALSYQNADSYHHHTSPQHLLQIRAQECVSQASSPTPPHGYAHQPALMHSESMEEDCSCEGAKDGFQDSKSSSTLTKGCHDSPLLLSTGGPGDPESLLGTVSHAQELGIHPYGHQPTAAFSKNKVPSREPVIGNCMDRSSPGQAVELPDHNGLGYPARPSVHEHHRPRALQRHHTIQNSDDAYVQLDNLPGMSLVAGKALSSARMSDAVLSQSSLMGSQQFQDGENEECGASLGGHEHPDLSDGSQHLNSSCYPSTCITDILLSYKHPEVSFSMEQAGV
How it was run: as §1

[3] = tested on: LPS-induced TNFα in monocyte-derived macrophages (MdM); test: MdM assay: LPS-triggered TNFα (ELISA); format: cell-based, human; conditions: Homo sapiens, Macrophage, 20 h, monocyte-derived macrophages, LPS 200 ng/mL, supernatant after 20 h; read-out: TNFα EC50
Protocol: This assay evaluates illustrative compounds of the invention for their inhibition of LPS-induced TNFα and LPS triggered IL-10 secretion in monocyte-derived macrophages.
as §3, with “PBS.” for “PBS. Cells are resuspended in RPMI 1640 complete medium supplemented with 10% FBS, 1% P/S, and cell density is determined using a hematologic analyzer (Sysmex XS-500i).”
as §4, §5, §6
as §7, with “XS-500i).” for “XS-500i). 100 000 cells are seeded in 80 μL per well of a 96-well plate in RPMI 1640 medium supplemented with 10% FBS, 1% P/S.”
On day 10, MdMs are triggered and compound is added.
as §8
Medium is carefully removed from cell plates using multichannel pipette, and replaced by 80 μL fresh medium. 10 μL of the 10× final concentration compound is added to the cells and incubated for 1 hour at 37° C. before addition of trigger. No trigger conditions/trigger conditions are spiked with equal final DMSO concentrations of 0.2% DMSO. 10 μL of 10×LPS (final conc. 200 ng/mL) solution are added to all wells except for the ‘no trigger wells’ where 10 μL medium is added. Supernatant is collected after 2 h (IL-10 determination) and after 20 h (TNFα determination) of LPS triggering.
The plate is then washed once with PBST (PBS+0.05% Tween20) and once with PBS followed by the addition of 100 μL of blocking buffer (1% Bovine Serum Albumin (BSA)−5% Sucrose) and plates are sealed and incubated for at least 4 h at RT. After washing the plate once with PBST and once with PBS, 40 μL of standard or sample are added (TNFα standard curve is prepared using a 1/2 serial dilution starting from […]; dilutions are made in dilution buffer (PBS+1% BSA)). Plates are washed twice with PBST, and once with PBS, after which 35 μL of the detection antibody is added (final concentration 0.25 μg/mL diluted in dilution buffer) and plates are incubated for at least 2 h at RT. Plates are washed twice with PBST, and once with PBS, where after 35 μL of Strep-HRP conjugate (0.5 μg/mL final concentration diluted in dilution buffer) is added. Plates are incubated in the dark, at RT for at least 45 min but no longer than 1 hour. Plates are washed twice with PBST, and once with PBS.

T1 sequence (Q9H0K1 whole entry): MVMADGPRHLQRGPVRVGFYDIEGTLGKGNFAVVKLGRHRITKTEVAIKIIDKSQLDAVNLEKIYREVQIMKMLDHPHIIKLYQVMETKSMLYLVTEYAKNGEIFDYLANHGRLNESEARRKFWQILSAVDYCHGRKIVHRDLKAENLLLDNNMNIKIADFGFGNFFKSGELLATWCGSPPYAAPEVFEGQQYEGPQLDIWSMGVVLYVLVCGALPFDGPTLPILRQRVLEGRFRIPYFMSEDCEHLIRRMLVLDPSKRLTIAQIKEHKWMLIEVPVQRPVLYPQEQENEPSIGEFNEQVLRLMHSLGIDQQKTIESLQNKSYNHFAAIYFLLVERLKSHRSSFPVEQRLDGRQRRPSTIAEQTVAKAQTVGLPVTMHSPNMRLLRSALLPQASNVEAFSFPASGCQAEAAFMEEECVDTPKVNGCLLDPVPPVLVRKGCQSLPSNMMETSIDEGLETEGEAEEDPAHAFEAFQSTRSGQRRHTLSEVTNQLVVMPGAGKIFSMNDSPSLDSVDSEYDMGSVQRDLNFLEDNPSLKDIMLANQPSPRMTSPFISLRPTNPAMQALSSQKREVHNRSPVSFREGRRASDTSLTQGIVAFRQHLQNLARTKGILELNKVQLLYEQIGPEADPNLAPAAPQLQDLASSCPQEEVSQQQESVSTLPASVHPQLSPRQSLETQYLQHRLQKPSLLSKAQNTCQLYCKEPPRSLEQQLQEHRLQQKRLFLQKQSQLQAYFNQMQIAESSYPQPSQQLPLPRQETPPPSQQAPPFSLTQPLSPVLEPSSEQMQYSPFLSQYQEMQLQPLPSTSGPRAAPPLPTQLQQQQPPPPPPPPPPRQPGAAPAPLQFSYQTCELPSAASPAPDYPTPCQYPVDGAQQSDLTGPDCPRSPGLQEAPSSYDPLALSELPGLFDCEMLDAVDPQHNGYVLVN

SMILES | IC50 (SIK2) [nM] | EC50 [2] [nM] | IC50 (SIK1) [nM] | IC50 (SIK3) [nM] | EC50 [3] [nM] | IL-10 FCmax median [1]
COc1cc(-c2cnc3cc(OCCNC(=O)C(F)F)ccn23)cc(OC(F)F)c1C(=O)NC1CC1 [Cpd 371, N-cyclopropyl-4-[7-[2-[(2,2-difluoroacetyl)amino]ethoxy]imidazo[1,2-a]pyridin-3-yl]-2-(difluoromethoxy)-6-methoxy-benzamide] | 0.01 to 10 | 100 to 1000 | 0.01 to 10 | 0.01 to 10 |  | ++ (>1.5-4.5)
COc1cc(-c2cnc3cc(OC[C@H]4CCCNC4)ccn23)cc(OC(F)F)c1C(=O)NC1CC1 [Cpd 315, N-cyclopropyl-2-(difluoromethoxy)-6-methoxy-4-[7-[[(3S)-3-piperidyl]methoxy]imidazo[1,2-a]pyridin-3-yl]benzamide] | 0.01 to 10 | 100 to 1000 | 10 to 100 | 0.01 to 10 |  | ++ (>1.5-4.5)
COc1cc(-c2cnc3cc(OCC4CCN(C5COC5)C4)ccn23)cc(OC(F)F)c1C(=O)NC1CC1 (stereo not shown) [Cpd 288, N-cyclopropyl-2-(difluoromethoxy)-6-methoxy-4-[7-[[1-(oxetan-3-yl)pyrrolidin-3-yl]methoxy]imidazo[1,2-a]pyridin-3-yl]benzamide] | 0.01 to 10 | 0.1 to 100 | 10 to 100 | 0.01 to 10 |  | +++ (>4.5)

Now from value to compound, other results behind:

IC50 (SIK2) [nM] | EC50 [2] [nM] | IC50 (SIK1) [nM] | IC50 (SIK3) [nM] | EC50 [3] [nM] | SMILES | IL-10 FCmax median [1]
0.01 to 10 | 0.1 to 100 | 0.01 to 10 | 0.01 to 10 |  | COc1cc(-c2cnc3cc(OCCCN4CC5CC4CO5)ccn23)cc(OC(F)F)c1C(=O)NC1CC1 (stereo not shown) [compound 284, N-cyclopropyl-2-(difluoromethoxy)-6-methoxy-4-[7-[3-(2-oxa-5-azabicyclo[2.2.1]heptan-5-yl)propoxy]imidazo[1,2-a]pyridin-3-yl]benzamide] | ++ (>1.5-4.5)
0.01 to 10 | 100 to 1000 | 10 to 100 | 0.01 to 10 |  | COc1cc(-c2cnc3cc(OCC(O)CN4CCS(=O)(=O)CC4)ccn23)cc(OC(F)F)c1C(=O)NC1CC1 (stereo not shown) [compound 374, N-cyclopropyl-2-(difluoromethoxy)-4-[7-[3-(1,1-dioxo-1,4-thiazinan-4-yl)-2-hydroxy-propoxy]imidazo[1,2-a]pyridin-3-yl]-6-methoxy-benzamide] | +++ (>4.5)
0.01 to 10 |  | > 500 | 0.01 to 10 | 100 to 1000 | COc1cc(-c2cnc3cc(OCCN4C[C@@H]5C[C@H]4CO5)ccn23)cc2c1C(=O)N(CC(F)(F)F)CC2 [compound 245, 8-methoxy-6-[7-[2-[(1S,4S)-2-oxa-5-azabicyclo[2.2.1]heptan-5-yl]ethoxy]imidazo[1,2-a]pyridin-3-yl]-2-(2,2,2-trifluoroethyl)-3,4-dihydro isoquinolin-1-one] | +++ (>4.5)
0.01 to 10 | 100 to 1000 | 10 to 100 | 0.01 to 10 |  | COc1cc(-c2cnc3cc(OCC(O)CN4CCC(O)CC4)ccn23)cc(OC(F)F)c1C(=O)NC1CC1 (stereo not shown) [compound 379, N-cyclopropyl-2-(difluoromethoxy)-4-[7-[2-hydroxy-3-(4-hydroxy-1-piperidyl)propoxy]imidazo [1,2-a]pyridin-3-yl]-6-methoxy-benzamide] | ++ (>1.5-4.5)
0.01 to 10 | 0.1 to 100 | 10 to 100 | 0.01 to 10 |  | COc1cc(-c2cnc3cc(OC[C@H]4CCCN(C(C)C)C4)ccn23)cc(OC(F)F)c1C(=O)NC1CC1 [compound 329, N-cyclopropyl-2-(difluoromethoxy)-4-[7-[[(3S)-1-isopropyl-3-piperidyl]methoxy]imidazo [1,2-a]pyridin-3-yl]-6-methoxy-benzamide] | +++ (>4.5)
